Assay results taken from patent publication US7879829B2, “19-nor-vitamin D analogs with 1,2-dihydrofuran ring” (Wisconsin Alumni Research Foundation, priority 2008, dated 2011).
Entries after “also recorded” stand apart in the source; their conditions may differ. Where two headings read alike, the source gives them in different places.

Legend:
[1] = system: 24-hydroxylase (24 Ohase) gene promoter in ROS 17/2.8 (bone) cells; assay: In vitro transcription assay (24-hydroxylase promoter luciferase reporter); assay type: cell-based; conditions: FIG. 3; for EC50: ROS 17/2.8 cells, 24-hydroxylase promoter luciferase, 16 h, read-out: EC50, transcriptional activity in bone cells; for transcription of the 24-hydroxylase gene, times less potent than 1,25-(OH)2D3: relative to 1,25-(OH)2D3
Method: In vitro Transcription Assay
Transcription activity was measured in ROS 17/2.8 (bone) cells that were stably transfected with a 24-hydroxylase (24 Ohase) gene promoter upstream of a luciferase reporter gene (Arbour et al., 1998). Cells were given a range of doses. Sixteen hours after dosing the cells were harvested and luciferase activities were measured using a luminometer.
RLU=relative luciferase units.

[2] = system: bone calcium mobilization; assay: Bone calcium mobilization (serum calcium); assay type: in vivo, Sprague-Dawley rats; conditions: low calcium diet (0.02%), FIG. 4; for bone calcium mobilization activity: ip
Method: (§1) Intestinal Calcium Transport and Bone Calcium Mobilization Male, weanling Sprague-Dawley rats were placed on Diet 11 (0.47% Ca) diet +AEK oil for one week followed by Diet 11 (0.02% Ca) +AEK oil for 3 weeks. The rats were then switched to a diet containing 0.47% Ca for one week followed by two weeks on a diet containing 0.02% Ca. Dose administration began during the last week on 0.02% calcium diet. Four consecutive ip doses were given approximately 24 hours apart. Twenty-four hours after the last dose, blood was collected from the severed neck and the concentration of serum calcium determined as a measure of bone calcium mobilization. The first 10 cm of the intestine was also collected for intestinal calcium transport analysis using the everted gut sac method.

HL-60 cells = assay: HL-60 differentiation (nitro blue tetrazolium reduction); assay type: cell-based, human; conditions: for EC50: HL-60 cells, 4 days, read-out: EC50, HL60 differentiation
Method: The study drugs were dissolved in ethanol and the concentrations determined using UV spectrophotometry. Serial dilutions were prepared so that a range of drug concentrations could be tested without changing the final concentration of ethanol (≦0.2%) present in the cell cultures.
Human promyelocytic leukemia (HL60) cells were grown in RPMI-1640 medium containing 10% fetal bovine serum. The cells were incubated at 37° C. in the presence of 5% CO2.
HL60 cells were plated at 1.2×10^5 cells/ml. Eighteen hours after plating, cells in duplicate were treated with drug. Four days later, the cells were harvested and a nitro blue tetrazolium reduction assay was performed (Collins et al., 1979; J. Exp. Med. 149:969-974). The percentage of differentiated cells was determined by counting a total of 200 cells and recording the number that contained intracellular black-blue formazan deposits. Verification of differentiation to monocytic cells was determined by measuring phagocytic activity (data not shown).

[3] = biological target: T1, full-length recombinant rat vitamin D receptor (Rattus norvegicus, UniProt P13053); assay: Vitamin D receptor competitive binding with [3H]-1,25-(OH)2D3
T1 construct: Full-length recombinant rat receptor was expressed in E. coli; histidine tag (C); made in house; host or cells: E. coli BL21 (DE3) Codon Plus RIL
T1 sequence (P13053 1-423): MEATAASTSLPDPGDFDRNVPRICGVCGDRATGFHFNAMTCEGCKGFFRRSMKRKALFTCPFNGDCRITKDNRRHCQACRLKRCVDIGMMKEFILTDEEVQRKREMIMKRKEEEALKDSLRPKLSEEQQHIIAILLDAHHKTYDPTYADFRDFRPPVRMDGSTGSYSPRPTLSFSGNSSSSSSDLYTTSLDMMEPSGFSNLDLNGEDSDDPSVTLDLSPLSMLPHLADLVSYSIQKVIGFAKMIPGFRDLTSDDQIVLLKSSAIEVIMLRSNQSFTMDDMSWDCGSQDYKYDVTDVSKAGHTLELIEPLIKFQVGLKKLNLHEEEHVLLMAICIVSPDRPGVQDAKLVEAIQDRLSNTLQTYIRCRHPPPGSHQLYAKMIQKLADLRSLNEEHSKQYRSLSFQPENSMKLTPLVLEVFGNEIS
Excerpt: Vitamin D Receptor Binding
Full-length recombinant rat receptor was expressed in E. coli BL2 1 (DE3) Codon Plus RIL cells and purified to homogeneity using two different column chromatography systems. The first system was a nickel affinity resin that utilizes the C-terminal histidine tag on this protein. The protein that was eluted from this resin was further purified using ion exchange chromatography (S-Sepharose Fast Flow). Aliquots of the purified protein were quick frozen in liquid nitrogen and stored at −80° C. until use. For use in binding assays, the protein was diluted in TEDK50 (50 mM Tris, 1.5 mM EDTA, pH 7.4, 5 mM DTT, 150 mM KCl) with 0.1% Chaps detergent. The receptor protein and ligand concentration were optimized such that no more than 20% of the added radiolabeled ligand was bound to the receptor.
Radiolabeled and unlabeled ligands were added to 100 mcl of the diluted protein at a final ethanol concentration of ≦10%, mixed and incubated overnight on ice to reach binding equilibrium. The following day, 100 mcl of hydroxylapatite slurry (50%) was added to each tube and mixed at 10-minute intervals for 30 minutes. The hydroxylapaptite was collected by centrifugation and then washed three times with Tris-EDTA buffer (50 mM Tris, 1.5 mM EDTA, pH 7.4) containing 0.5% Titron X-100. After the final wash, the pellets were transferred to scintillation vials containing 4 ml of Biosafe II scintillation cocktail, mixed and placed in a scintillation counter. Total binding was determined from the tubes containing only radiolabeled ligand.

[4] = system: intestinal calcium transport; assay: Intestinal calcium transport (everted gut sac method); assay type: in vivo, Sprague-Dawley rats; conditions: FIG. 5
Method: as §1

Structure (SMILES) | EC50 [1] | bone calcium mobilization activity ([2]; 260 pmol/day) | serum calcium levels ([2]; all the dosages tested) | EC50 (HL-60 cells; FIG. 2) | Ki ([3]; full-length recombinant rat vitamin D receptor, FIG. 1, read-out: Ki, competition with [3H]-1,25-(OH)2D3 for binding to VDR) | VDR affinity, times less potent than 1,25-(OH)2D3 ([3]; relative to 1,25-(OH)2D3, FIG. 1) | reduced VDR binding affinity ([3]; relative to native hormone) | transcription of the 24-hydroxylase gene, times less potent than 1,25-(OH)2D3 [1] | transcription of the 24-hydroxylase gene, times less potent than 1,25-(OH)2D3 ([1]; listed as Ia) | intestinal calcium transport activity ([4]; 780 pmol/day for 4 consecutive days, compared with 1,25-(OH)2D3 at 780 pmol/day) | intestinal calcium transport activity, overall compared with 1,25-(OH)2D3 ([4]; in vivo, no dose stated) | bone calcium mobilization activity ([2]; 7,020 pmol/day for 4 consecutive days) | EC50 (HL-60 cells; Homo sapiens, 96 h, FIG. 2) | HL-60 differentiation, times less potent than 1,25-(OH)2D3 (HL-60 cells; relative to 1,25-(OH)2D3, FIG. 2) | reduced cell differentiation potency (HL-60 cells; relative to native hormone)
C=C1/C(=C\C=C2/CCC[C@]3(C)[C@@H]([C@H](C)CCCC(C)(C)O)CC[C@@H]23)C[C@@H](O)C[C@@H]1O [1,25-(OH)2D3, 1α,25-dihydroxyvitamin D3, reference compound] | 0.2 nM | significant activity | increased serum calcium levels at all the dosages tested | 3 nM | – | – | – | – | – | – | – | – | – | – | –
C[C@H](CCCC(C)(C)O)C1CCC2/C(=C/C=C3/C[C@@H](O)C4=CCO[C@@H]4C3)CCC[C@@]21C (stereo partly shown) [A-REV5, 1,2-dihydrofuran-25-hydroxy-19-nor-vitamin D3] | 8 nM | – | – | – | 0.6 nM | ~10 times | about 1 log | about 40 times | 40 times | almost the same activity as 1,25-(OH)2D3 | promotes intestinal calcium transport in a dose dependent manner; also recorded: only slightly lower potency in vivo | no bone calcium mobilization activity; also recorded: did not result in any mobilization of bone calcium | 30 nM | ~10 times | 1 log
